Experimental data as given in patent US10548843B2, “Sustained-release silica composite depot non-steroidal anti-inflammatory drug delivery” (Solani Therapeutics, priority 2015, dated 2020).

Tests used:
[1] = dogs, single oral administration; cited from earlier work
[2] = cited from earlier work
[3] = Concentration of meloxicam in plasma of dogs after single subcutaneous silica hydrogel depot; type: in vivo; conditions: dog, sc, 3.16 mg meloxicam/kg bodyweight, single s.c. silica hydrogel depot
Method: Example 1 relates to animal studies carried out. […] The appropriate dose of TI was administered subcutaneously as a one off dose at the area behind the shoulder blade.

[4] = Mouse study: body weight at necropsy; type: in vivo, mouse (BALB/cAnNCrl, male); conditions: SiO2 left flank, SiO2 with meloxicam right flank, s.c. 0.1 ml
Method: A mouse study was carried out using 15 animals from University of Turku, Central Animal Laboratory, Pharmacity breeding unity. All animals were BALB/cAnNCrl, male. The animals were acclimatised for 15 days. No period of isolation was needed. At the start of the study the animals were aged 10-13 weeks and weighed 28.9 g±1.38 g (min. 26.6 g, max 31.1 g).
Administration of the test items was carried out according to the study design set out in Table 3. The test item was administered by subcutaneous (back) injection using a syringe and an 18G needle at a dose volume of 0.1 ml/mouse.
Animals were weighed and euthanized (CO2) at the end of the experiment (Animals #1, 2, and 3 were not weighed). The injection sites were macroscopically observed and digital pictures from test items in soft tissue was taken at the each time point. The test item (gel) was removed from a soft tissue when possible.

[5] = Animal 4, necropsy 7 days after injections
[6] = Animal 7, necropsy 14 days after injections
[7] = Animal 10, necropsy 28 days after injections

## NS(=O)(=O)c1ccc(-n2nc(C(F)(F)F)cc2-c2ccc(F)cc2)cc1 [Mavacoxib]
[1]
  Time a therapeutic level is maintained: one month

## CC(C(=O)O)c1ccc2c(c1)[nH]c1ccc(Cl)cc12 (centres unmarked) [carprofen]
[2]
  Solubility in water: practically insoluble in water

## Cc1cnc(NC(=O)C2=C(O)c3ccccc3S(=O)(=O)N2C)s1 [meloxicam]
[2]; methanol
  Solubility in methanol: very slightly soluble
[2]; strong acids and bases, compared with water
  Solubility in strong acids and bases: higher solubility
[2]
  Solubility in water: practically insoluble in water
[3]; Dog 1, 0.0 hours
  concentration at 0 hours: 0 ng/mL
[3]; Dog 1, 0.5 hours
  concentration at 0.5 hours: 43.2 ng/mL
[3]; Dog 1, 1.0 hours
  concentration at 1 hours: 132 ng/mL
[3]; Dog 1, 2.0 hours
  concentration at 2 hours: 296 ng/mL
[3]; Dog 1, 3.0 hours
  concentration at 3 hours: 379 ng/mL
[3]; Dog 1, 4.0 hours
  concentration at 4 h: 402 ng/mL
[3]; Dog 1, 6.0 hours
  concentration at 6 h: 375 ng/mL
[3]; Dog 1, 8.0 hours
  concentration at 8 h: 294 ng/mL
[3]; Dog 1, 12.0 hours
  concentration at 12 h: 363 ng/mL
[3]; Dog 1, 504.0 hours
  concentration at 504 h: 4.3 ng/mL
[3]; Dog 1, 576.0 hours
  concentration at 576 h: 2.6 ng/mL
[3]; Dog 1, 672.0 hours
  concentration at 672 h: 1.5 ng/mL
[3]; Dog 1, 840.0 hours
  concentration at 840 hours: 1 ng/mL
[3]; Dog 1, 1008.0 hours
  concentration at 1008 hours: 0.9 ng/mL
[3]; Dog 1, 1176.0 hours
  concentration at 1176 hours: 0.5 ng/mL
[3]; Dog 1, 1344.0 hours
  concentration at 1344 hours: 0.4 ng/mL
[3]; Dog 2, 0.0 hours
  concentration at 0 hours: 0 ng/mL
[3]; Dog 2, 0.5 hours
  concentration at 0.5 hours: 27 ng/mL
[3]; Dog 2, 1.0 hours
  concentration at 1 hours: 76 ng/mL
[3]; Dog 2, 2.0 hours
  concentration at 2 hours: 153 ng/mL
[3]; Dog 2, 3.0 hours
  concentration at 3 hours: 227 ng/mL
[3]; Dog 2, 4.0 hours
  concentration at 4 h: 257 ng/mL
[3]; Dog 2, 6.0 hours
  concentration at 6 h: 349 ng/mL
[3]; Dog 2, 8.0 hours
  concentration at 8 h: 344 ng/mL
[3]; Dog 2, 12.0 hours
  concentration at 12 h: 447 ng/mL
[3]; Dog 2, 504.0 hours
  concentration at 504 h: 115 ng/mL
[3]; Dog 2, 576.0 hours
  concentration at 576 h: 101 ng/mL
[3]; Dog 2, 672.0 hours
  concentration at 672 hours: 67.3 ng/mL
[3]; Dog 2, 840.0 hours
  concentration at 840 hours: 40.1 ng/mL
[3]; Dog 2, 1008.0 hours
  concentration at 1008 hours: 17.9 ng/mL
[3]; Dog 2, 1176.0 hours
  concentration at 1176 hours: 5.6 ng/mL
[3]; Dog 2, 1344.0 hours
  concentration at 1344 hours: 2.6 ng/mL
[3]; Dog 3, 0.0 hours
  concentration at 0 hours: 0 ng/mL
[3]; Dog 3, 0.5 hours
  concentration at 0.5 hours: 27.1 ng/mL
[3]; Dog 3, 1.0 hours
  concentration at 1 hours: 93.9 ng/mL
[3]; Dog 3, 2.0 hours
  concentration at 2 hours: 215 ng/mL
[3]; Dog 3, 3.0 hours
  concentration at 3 hours: 301 ng/mL
[3]; Dog 3, 4.0 hours
  concentration at 4 h: 319 ng/mL
[3]; Dog 3, 6.0 hours
  concentration at 6 h: 359 ng/mL
[3]; Dog 3, 8.0 hours
  concentration at 8 h: 404 ng/mL
[3]; Dog 3, 12.0 hours
  concentration at 12 h: 559 ng/mL
[3]; Dog 3, 504.0 hours
  concentration at 504 h: 33.1 ng/mL
[3]; Dog 3, 576.0 hours
  concentration at 576 h: 16.6 ng/mL
[3]; Dog 3, 672.0 hours
  concentration at 672 hours: 11.6 ng/mL
[3]; Dog 3, 840.0 hours
  concentration at 840 hours: 6.5 ng/mL
[3]; Dog 3, 1008.0 hours
  concentration at 1008 hours: 5.6 ng/mL
[3]; Dog 3, 1176.0 hours
  concentration at 1176 hours: 3 ng/mL
[3]; Dog 3, 1344.0 hours
  concentration at 1344 hours: 2.4 ng/mL
[4]; [5]
  Weight at necropsy: 27.3 g
  Weight gain: -0.7 g
[4]; [6]
  Weight at necropsy: 29.0 g
  Weight gain: 0.0 g
[4]; [7]
  Weight at necropsy: 32.7 g
  Weight gain: 1.6 g
